These results are taken from patent US20020044948A1, “Methods and compositions for co-stimulation of immunological responses to peptide antigens” (priority 2000, published 2002).

This experiment relates to E7 peptide-pulsed EL4 cells. Put plainly: Cytotoxic lymphocyte (4-hour 51Cr-release) assay on spleen cells of immunized mice. It is filed as in vivo, C57BL/6 mice. The note with it: C57BL/6 (B6) (H-2b) mice. As for the experimental part:
A peptide antigen formulation for use within the present example was prepared in an emulsion by a two-syringe system containing 1:1 incomplete Freund's Adjuvant with 100 μg HPV16 E7 peptide (49-57), 20 μg PCLUS-6.1 helper epitope (see, U.S. Pat. No. 5,939,074; U.S. Pat. No. 5,976,541; U.S. Pat. No. 5,030,449; U.S. Pat. No. 5,081,226; U.S. Pat. No. 5,932,218; U.S. patent application Ser. No. 08/060988, filed May 14, 1993, corresponding to EP 0 710 572 Bi; WO 94/26785; and
U.S. patent application Ser. No. 09/455,076, each incorporated herein by reference), 50,000 U IL-2, 10X PBS and double distilled water. The B7-1 expressing DNA plasmid (400 μg) was prepared in 100 μl water. […]
Procedures to measure CTL activity are well known and are described elsewhere (see, e.g. Chen et al., Cell 71:1093-1102, 1992). […] Supernatants were harvested and counted using a gamma counter. The percentage of specific 51 Cr-release was calculated as follows: 100 X (experimental release−spontaneous release)/(maximum release−spontaneous release). Spontaneous release was determined from target cells incubated without effector cells; maximum release was determined from target cells incubated in the presence of 1% Triton X-100.

For “HPV16 E7 peptide(49-57): H2Db binding antigenic peptide of human papilloma virus 16 E7 protein, residues 49-57 (RAHYNIVTF; UniProt P03129 49-57, looked up, fragment)”, the “Immunogenicity of the peptide (in words)” value is “immunogenic”.
